The record followed here is PubChem BioAssay AID1259411 (Chemical Carcinogenesis Research Information System (CCRIS), 2018).

SMILES strings stand for the structures. Active and inactive are the calls of the source. The rule behind the calls is not given here.

The test system of this data set is rodent carcinogenicity bioassays, tumor incidence. Put plainly: CCRIS carcinogenicity studies. The procedure, abridged: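 Archive of carcinogenicity, mutagenicity, tumor promotion and tumor inhibition results drawn from journals, NCI reports and other sources, expert-reviewed; covers 1985-2011 and is no longer updated.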

With `O.O.O.O.O.O.O.O=S(=O)(O)O.[Co+2]`, the carcinogen call reads like this: (Species: MOUSE, Strain/Sex: B6C3F1/FEMALE, Route: INHALATION, Dose: 0, 0.3, 1, 3 MG/M3 6HR/D 5 D/WK FOR 105 WK (STUDY DURATION: 105 WK), Dose: 0, 0.3, 1, 3 MG/M3 6HR/D 5 D/WK FOR 105 WK (STUDY DURATION: 105 WK), Tumor Site: Type of Lesion: LUNG: ALVEOLAR/BRONCHIOLAR ADENOMA, ALVEOLAR/BRONCHIOLAR CARCINOMA) “active; positive”; (Species: MOUSE, Strain/Sex: B6C3F1/MALE, Route: INHALATION, Dose: 0, 0.3, 1, 3 MG/M3 6HR/D 5 D/WK FOR 105 WK (STUDY DURATION: 105 WK), Dose: 0, 0.3, 1, 3 MG/M3 6HR/D 5 D/WK FOR 105 WK (STUDY DURATION: 105 WK), Tumor Site: Type of Lesion: LUNG: ALVEOLAR/BRONCHIOLAR ADENOMA, ALVEOLAR/BRONCHIOLAR CARCINOMA) “active; positive”; (Species: RAT, Strain/Sex: F344/FEMALE, Route: INHALATION, Dose: 0, 0.3, 1, 3 MG/M3 6HR/D 5 D/WK FOR 105 WK (STUDY DURATION: 105 WK), Dose: 0, 0.3, 1, 3 MG/M3 6HR/D 5 D/WK FOR 105 WK (STUDY DURATION: 105 WK), Tumor Site: Type of Lesion: LUNG: ALVEOLAR/BRONCHIOLAR ADENOMA, ALVEOLAR/BRONCHIOLAR CARCINOMA, ADRENAL MEDULLA: BENIGN, COMPLEX, OR MALIGNANT PHEOC) “active; positive”; (Species: RAT, Strain/Sex: F344/N/MALE, Route: INHALATION, Dose: 0, 0.3, 1, 3 MG/M3 6HR/D 5 D/WK FOR 105 WK (STUDY DURATION: 105 WK), Dose: 0, 0.3, 1, 3 MG/M3 6HR/D 5 D/WK FOR 105 WK (STUDY DURATION: 105 WK), Tumor Site: Type of Lesion: LUNG: ALVEOLAR/BRONCHIOLAR ADENOMA) “active; positive”.

As for `CC1=C2C(=CO[C@H](C)[C@H]2C)C(=O)C(C(=O)O)=C1O`, the carcinogen call is, setting by setting: (Species: MOUSE, Strain/Sex: DDD/MALE, Route: ORAL, Dose: 0, 100, 200 PPM IN DIET FOR 70 WK (STUDY DURATION: 70 WK), Dose: 0, 100, 200 PPM IN DIET FOR 70 WK (STUDY DURATION: 70 WK)) “inactive; negative”; (Species: RAT, Route: DIET, Dose: 0, 0.1%, FOR 32 WK, Tumor Site: Type of Lesion: KIDNEY: ADENOMA, ADENOCARCINOMA) “active; positive”; (Species: RAT, Strain/Sex: F344/MALE, Route: ORAL, Dose: 0.1% IN DIET FOR 80 WK, Tumor Site: Type of Lesion: KIDNEY: CLEAR CELL ADENOMA) “active; positive”.

With `Oc1cc(Cl)ccc1Oc1ccc(Cl)cc1Cl`, the carcinogen call (Species: Hamster, Strain/Sex: Bio FID Alexander Syrian/Female (60/group), Route: Oral, Dose: 0, 12.5, 75, 250 mg/kg in diet for 90-95 wk, Dose: 0, 12.5, 75, 250 mg/kg in diet for 90-95 wk) was “inactive; negative (study details not given in source; purity 99.5%)”; the carcinogen call (Species: Hamster, Strain/Sex: Bio FID Alexander Syrian/Male (60/group), Route: Oral, Dose: 0, 12.5, 75, 250 mg/kg in diet for 90-95 wk, Dose: 0, 12.5, 75, 250 mg/kg in diet for 90-95 wk) is “inactive; negative (study details not given in source; purity 99.5%)”; the carcinogen call (Species: Rat, Strain/Sex: Sprague-Dawley/Female (60/group), Route: Oral, Dose: 0, 300, 1,200, 3,000 ppm in diet for 78 wk, Dose: 0, 300, 1,200, 3,000 ppm in diet for 78 wk) was “inactive; negative (study details not given in source; purity 99%)”; the carcinogen call (Species: Rat, Strain/Sex: Sprague-Dawley/Male (60/group), Route: Oral, Dose: 0, 300, 1,200, 3,000 ppm in diet for 78 wk, Dose: 0, 300, 1,200, 3,000 ppm in diet for 78 wk) is “inactive; negative (study details not given in source; purity 99%)”.

As to `CCC(=O)CNCN=O`, the carcinogen call was “active; positive” (Species: HAMSTER, Strain/Sex: SYRIAN/FEMALE, Route: SUBCUTANEOUS, Dose: 4, 8, 16 MG/KG 1/WK FOR LIFE, Dose: 4, 8, 16 MG/KG 1/WK FOR LIFE, Tumor Site: Type of Lesion: NASAL CAVITY: ADENOCARCINOMA, PAPILLOMA, MUCOEPIDERMOID TUMOR, LARYNX OR PHARYNX: PAPILLARY POLYP, PAPILLOMA, ORAL CAVIT, Tumor Site: Type of Lesion: NASAL CAVITY: ADENOCARCINOMA, PAPILLOMA, MUCOEPIDERMOID TUMOR, LARYNX OR PHARYNX: PAPILLARY POLYP, PAPILLOMA, ORAL CAVIT) and “active; positive” (Species: HAMSTER, Strain/Sex: SYRIAN/MALE, Route: SUBCUTANEOUS, Dose: 2.3, 4.6, 9.2 MG/KG 1/WK FOR LIFE, Dose: 2.3, 4.6, 9.2 MG/KG 1/WK FOR LIFE, Tumor Site: Type of Lesion: NASAL CAVITY: ADENOCARCINOMA, PAPILLOMA, MUCOEPIDERMOID TUMOR, LARYNX OR PHARYNX: PAPILLARY POLYP, PAPILLOMA, ORAL CAVIT, Tumor Site: Type of Lesion: NASAL CAVITY: ADENOCARCINOMA, PAPILLOMA, MUCOEPIDERMOID TUMOR, LARYNX OR PHARYNX: PAPILLARY POLYP, PAPILLOMA, ORAL CAVIT).

Regarding `NCCN`, the carcinogen call was “inactive; negative” (Species: MOUSE, Strain/Sex: C3H/MALE, Route: DERMAL, Dose: 0, 25 µL OF A 1% DEIONIZED WATER SOLUTION 3/WK FOR LIFESPAN (STUDY DURATION: LIFESPAN)); “inactive; negative” (Species: RAT, Strain/Sex: F344/FEMALE, Route: ORAL, Dose: 0, 20, 100, 350 MG/KG/D IN DIET FOR 104 WK (STUDY DURATION: 104 WK), Dose: 0, 20, 100, 350 MG/KG/D IN DIET FOR 104 WK (STUDY DURATION: 104 WK)); “inactive; negative” (Species: RAT, Strain/Sex: F344/MALE, Route: ORAL, Dose: 0, 20, 100, 350 MG/KG/D IN DIET FOR 104 WK (STUDY DURATION: 104 WK), Dose: 0, 20, 100, 350 MG/KG/D IN DIET FOR 104 WK (STUDY DURATION: 104 WK)).

Regarding `N[C@@H](CS)C(=O)O`, the carcinogen call is “inactive; negative” (Species: RAT, Strain/Sex: F344/FEMALE, Route: ORAL, Dose: 0, 0.25, 0.5% IN DRINKING WATER FOR 108 WK (STUDY DURATION: 108 WK), Dose: 0, 0.25, 0.5% IN DRINKING WATER FOR 108 WK (STUDY DURATION: 108 WK)) and “inactive; negative” (Species: RAT, Strain/Sex: F344/MALE, Route: ORAL, Dose: 0, 0.25, 0.5% IN DRINKING WATER FOR 108 WK (STUDY DURATION: 108 WK), Dose: 0, 0.25, 0.5% IN DRINKING WATER FOR 108 WK (STUDY DURATION: 108 WK)).

`CC(C)N(C(=O)SC/C(Cl)=C/Cl)C(C)C`: the carcinogen call reads like this: (Species: MOUSE, Strain/Sex: B6AKF1/MALE, Route: GAVAGE/ORAL, Dose: 215 MG/KG IN GELATIN FROM D 7-28 OF LIFE THEN 560 PPM IN DIET, Tumor Site: Type of Lesion: LIVER: HEPATOMA) “active; positive”; (Species: MOUSE, Strain/Sex: B6C3F1/MALE,FEMALE, Route: GAVAGE/ORAL, Dose: 215 MG/KG IN GELATIN FROM D 7-28 OF LIFE THEN 560 PPM IN DIET, Tumor Site: Type of Lesion: LIVER: HEPATOMA) “active; positive”; (Species: RAT, Strain/Sex: STRAIN-CD/MALE,FEMALE, Route: ORAL, Dose: 150, 300 PPM IN DIET FOR 78 WK) “inactive; negative”.

Turning to `Nc1cc([N+](=O)[O-])ccc1NC(CO)(CO)CO`, the carcinogen call by setting is: (Species: RAT, Strain/Sex: SPRAGUE-DAWLEY/FEMALE, Route: ORAL, Dose: 0, 0.2, 0.6, 2% IN DIET OF MATED AND NONMATED RATS FOR UP TO 6 MO (STUDY DURATION: 6 MO), Dose: 0, 0.2, 0.6, 2% IN DIET OF MATED AND NONMATED RATS FOR UP TO 6 MO (STUDY DURATION: 6 MO), Tumor Site: Type of Lesion: MAMMARY GLAND: TUMOR) “active; positive”; (Species: RAT, Strain/Sex: SPRAGUE-DAWLEY/MALE, Route: ORAL, Dose: 0, 0.2, 0.6, 2% IN DIET FOR UP TO 6 MO (STUDY DURATION: 6 MO), Dose: 0, 0.2, 0.6, 2% IN DIET FOR UP TO 6 MO (STUDY DURATION: 6 MO)) “inactive; negative”.

On to `O=C(NCC1CCCCN1)c1cc(OCC(F)(F)F)ccc1OCC(F)(F)F` (stereo not given), for which the carcinogen call (Species: MOUSE, Strain/Sex: CD-1/MALE,FEMALE, Route: ORAL, Dose: 15, 30, 60 MG/KG/DAY IN DIET FOR 18 MO, Dose: 15, 30, 60 MG/KG/DAY IN DIET FOR 18 MO) is “inactive; negative” and the carcinogen call (Species: RAT, Strain/Sex: WISTAR/MALE,FEMALE, Route: ORAL, Dose: 15, 30, 60 MG/KG/DAY IN DIET FOR 24 MO, Dose: 15, 30, 60 MG/KG/DAY IN DIET FOR 24 MO) was “inactive; negative”.
